Patent publication US20170073337A1, “DIHYDROTHIAZINE AND DIHYDROOXAZINE DERIVATIVES HAVING BACE1 INHIBITORY ACTIVITY” (Shionogi & Co., Ltd., priority 2014, published 2017)

Key:
Recombinant human BACE1 = target: T1, Recombinant human BACE1 (Homo sapiens, UniProt P56817); test: Assay of BACE1 inhibitory activity: 96-well; format: biochemical; details: Assay format 96-well
T1 construct: purchased R&D Systems
Method: 48.5 μL of substrate peptide solution (Biotin-XSEVNLDAEFRHDSGC-Eu: X=ε-amino-n-capronic acid. Eu=Europium cryplate) was added to each well of 96-hole half-area plate (a black plate: Costar), and after addition of 0.5 μl of the compound of the present invention (DMSO solution) and 1 μl of Recombinant human BACE1(R&D Systems), the reaction mixture was incubated at 30° C. for 3.5 hours. The substrate peptide was synthesized by reacting Cryptate TBPCOOH mono SMP (CIS bio international) with Biotin-XSEVNLDAEFRHDSGC (Peptide Institute, Inc.).
After the incubation for reaction, 50 μl of 8.0 μg/ml Streptavidin-XL665 (CIS bio international) dissolved in phosphate buffer (150 mmol/L […]—KH2PO4, pH 7.0, 0.008% Triton X-100, 0.8 mol/L KF) was added to each well and left stand at 30° C. for 45 minutes.

[1] = system: Aβ production in neuroblastoma SH-SY5Y cells (SH/APPwt); test: β-amyloid (Aβ) production inhibitory effect in cell: 96-well; format: cell-based; details: Homo sapiens, Assay format 96-well
Method: Neuroblastoma SH-SY5V cells (SH/APPwt) with human wild-type R-APP excessively expressed therein were prepared at 8×10^5 cells/mL, and 150 μl portions thereof were inoculated into each well of a 96-well culture plate (Falcon). The cells were cultured for 2 hours at […]. in a 5% gaseous carbon dioxide incubator. […] Namely, the final DMSO concentration was 1%, and the amount of the cell culture was 200 μl. After the incubation was performed for 24 hours from the addition of the test compound, 100 μl of the culture supernatant was collected from each fraction. The amount of the Aβ in each fraction was measured. The Aβ amount was measured as follows. 10 μl of a homogeneous time resolved fluorescence (HTRF) measurement reagent (Amyloid β1-40 peptide: CIS bio international) and 10 μof the culture supernatant were put into a 384-well half area microplate (black microplate, Costar) and mixed with each other, and then left standing overnight at 4° C. while the light was shielded.

P-gp = target: T2, P-gp (Mus musculus, UniProt P21447); test: P-gp substrate test using mdr1a (−/−) B6 mice; format: in vivo; details: mdr1a (−/−) B6 (KO) and C57BL/6J (wild), mouse, brain / plasma, po, 2 mg/kg, Kp in KO mouse (mdr1a (−/−) B6) / Kp in Wild mouse, read-out: Kp ratio (2 mg/kg, po, 2 hr)
T2 construct: from tissue; host or cells: living mice (brain/plasma distribution), wild type versus mdr1a (−/−)
T2 sequence (P21447 whole entry): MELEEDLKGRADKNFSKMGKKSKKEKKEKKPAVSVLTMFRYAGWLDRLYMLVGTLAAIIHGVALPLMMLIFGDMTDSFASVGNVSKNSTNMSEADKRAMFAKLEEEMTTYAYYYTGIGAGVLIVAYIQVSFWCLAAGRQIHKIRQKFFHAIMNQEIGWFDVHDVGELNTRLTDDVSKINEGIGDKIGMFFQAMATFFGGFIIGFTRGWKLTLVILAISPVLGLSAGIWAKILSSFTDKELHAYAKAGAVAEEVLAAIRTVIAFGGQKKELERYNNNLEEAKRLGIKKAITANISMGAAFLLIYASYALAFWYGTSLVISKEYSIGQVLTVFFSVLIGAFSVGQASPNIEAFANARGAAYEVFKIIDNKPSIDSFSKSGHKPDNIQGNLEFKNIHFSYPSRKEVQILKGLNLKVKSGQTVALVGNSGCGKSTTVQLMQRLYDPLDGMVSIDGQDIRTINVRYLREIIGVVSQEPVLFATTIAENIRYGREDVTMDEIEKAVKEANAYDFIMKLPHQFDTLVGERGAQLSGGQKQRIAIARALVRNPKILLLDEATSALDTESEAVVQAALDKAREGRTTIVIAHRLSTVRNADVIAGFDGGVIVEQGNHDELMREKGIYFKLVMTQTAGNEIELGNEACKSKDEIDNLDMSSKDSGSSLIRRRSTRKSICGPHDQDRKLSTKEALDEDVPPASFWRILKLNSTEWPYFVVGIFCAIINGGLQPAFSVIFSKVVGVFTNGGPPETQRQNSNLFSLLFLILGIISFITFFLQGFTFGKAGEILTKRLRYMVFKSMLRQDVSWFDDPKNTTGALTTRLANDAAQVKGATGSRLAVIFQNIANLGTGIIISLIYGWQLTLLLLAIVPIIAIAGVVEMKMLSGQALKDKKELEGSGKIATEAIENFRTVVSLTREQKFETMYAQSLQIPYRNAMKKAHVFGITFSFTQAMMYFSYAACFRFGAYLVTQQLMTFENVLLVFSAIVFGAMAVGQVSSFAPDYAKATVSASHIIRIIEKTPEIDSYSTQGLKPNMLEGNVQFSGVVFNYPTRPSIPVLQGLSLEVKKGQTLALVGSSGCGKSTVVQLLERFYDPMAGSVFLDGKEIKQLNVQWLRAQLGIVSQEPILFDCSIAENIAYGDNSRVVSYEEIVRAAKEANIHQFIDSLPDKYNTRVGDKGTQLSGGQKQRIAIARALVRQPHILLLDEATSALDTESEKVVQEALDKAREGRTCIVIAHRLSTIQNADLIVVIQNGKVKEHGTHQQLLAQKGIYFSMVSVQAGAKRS
Method: Animal: mdrla (−/−) B6 mice (KO mouse) or […] mice (Wild mouse)
1. Animals may be fed prior to dosing of the compounds of the present invention. 2. The compounds of the present invention were dosed to three animals for each time point and blood and brain samples were removed at selected time points (e.g. 15 min, 30 min, 1 hr, 2 hr, 4 hr, 6 hr, 8 hr, or 24 hr) after dosing. Blood (0.3-0.7 mL) was collected via trunk blood collection with syringe containing anticoagulants (EDTA and heparin). Blood and tissue (e.g. brain) samples were immediately placed on melting ice. 3. Blood samples were centrifuged (1780×g for 10 minutes) for cell removal to obtain plasma. Then, plasma samples were transferred to a clean tube and stored in a −70° C. freezer until analysis. 4. Tissue (e.g. brain) samples were homogenized at a 1:3 ratio of tissue weight to ml of stilled water and transferred to a clean tube and stored in a −70° C. freezer until analysis. 5. Plasma and tissue (e.g. brain) samples were prepared using protein prceipitation and analyzed by LC/MS/MS. The analytical method was calibrated by including a standard curve constructed with blank plasma or brain samples and known quantities of analyte. Quality control samples were included to monitor the accuracy and precision of the methodology. 6. Plasma and brain concentration values (ng/mL and ng/g) were introduced into an appropriate tool used for calculating the pharmacokinetic parameters. A common platform was the WinNonlin (Registered trademark) pharmacokinetic software modeling program.
Kp: Tissue to Plasma concentration ratio Kp ratio=Kp in KO mouse/Kp in Wild mouse KO/Wild ratio of AUC Tissue/AUC Plasma ={AUC Tissue/AUC Plasma (KO mouse)}/{AUC Tissue/AUC Plasma (Wild mouse)}

[2] = Pharmacokinetic study (oral absorption); format: in vivo; details: bioavailability from AUCs of oral and intravenous administration; mouse or rat
Method: (1l) Animal: mouse or rat (2) Breeding conditions: mouse or rat was allowed free access to the tap water and the solid food. (3) Dose and grouping: orally or intravenously administered at a predetermined dose: grouping was as follows (Dose depends on the compound) Oral administration: 1 to 30 mg/kg (n=2 to 3) Intravenous administration: 0.5 to 10 mg/kg (n=2 to 3) (4) Dosing formulation: for oral administration, in a solution or a suspension state; for intravenous administration, in a solubilized state (5) Dosing method: in oral administration, forcedly administer using a syringe attached a flexible feeding tube; in intravenous administration, administer from caudal vein using a syringe attached with a needle. (6) Evaluation items: blood was collected at the scheduled time, and the plasma concentration of the compound of the present invention was measured by LC/MS/MS (7) Statistical analysis: regarding the transition of the plasma concentration of the compound of the present invention, the area under the plasma concentration-time curve (AUC) was calculated by non-linear least squares program WinNonlin (Registered trademark), and the bioavailability (BA) of the compound of the present invention was calculated from the AUCs of the oral administration group and intravenous administration group

T1 sequence (P56817 46-501): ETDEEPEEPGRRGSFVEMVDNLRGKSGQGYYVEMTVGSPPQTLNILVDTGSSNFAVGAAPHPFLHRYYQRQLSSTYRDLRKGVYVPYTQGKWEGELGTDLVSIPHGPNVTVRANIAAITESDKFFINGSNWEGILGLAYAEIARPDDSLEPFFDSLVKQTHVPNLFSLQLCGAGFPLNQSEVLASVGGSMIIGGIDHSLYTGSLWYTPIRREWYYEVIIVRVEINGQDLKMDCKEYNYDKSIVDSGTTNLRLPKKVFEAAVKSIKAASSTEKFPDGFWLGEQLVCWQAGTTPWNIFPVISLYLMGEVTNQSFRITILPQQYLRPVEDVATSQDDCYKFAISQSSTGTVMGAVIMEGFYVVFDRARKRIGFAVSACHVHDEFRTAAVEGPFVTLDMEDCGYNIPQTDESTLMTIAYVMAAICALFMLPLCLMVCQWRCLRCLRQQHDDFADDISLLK

IC50 (Recombinant human BACE1): 11.8 nM
IC50 [1]: 0.26 nM
Kp at 2 h (P-gp): 2.22
BA_% [2]: 27.4%
SMILES: COc1cnc(C(=O)Nc2ccc(F)c([C@@]3(C)N=C(N)S[C@H](C)[C@@H]3F)c2)cn1 [Compound I-8]
